Data published in patent US12459939B2 (SHANGHAI RINGENE BIOPHARMA CO., LTD., priority 2019, dated 2025).
pIC50: −log10 of the molar value.

Tests used:
[1] = Metabolic stability in rat liver microsomes; format: in vitro ADME; conditions: liver microsomes 0.5 mg/mL, NADPH, 1 μM compound, read-out: Rat microsomal T1/2
Procedure: (§1) (1) Metabolic stability test: 150 μL of liver microsomes (final concentration was 0.5 mg/mL) were subjected to metabolic stability incubation, the system containing NADPH (final concentration was 1 mM), 1 μM of the test compound and the positive control midazolam or the negative control atenolol, the reaction was terminated with acetonitrile containing tinidazole at 0 min, 5 min, 10 min, and 30 min, respectively, then the mixture was vortexed for 10 min, and centrifuged at 15000 rmp for 10 min, 50 μL of the supernatant was injected into 96 well. The metabolic stability of the compound was calculated by measuring the relative reduction of the original drug. (See Table 3 for specific values)

[2] = Metabolic stability in mouse liver microsomes; format: in vitro ADME; conditions: liver microsomes 0.5 mg/mL, NADPH, 1 μM compound, read-out: Mouse microsomal T1/2
Procedure: as §1

[3] = Metabolic stability in dog liver microsomes; format: in vitro ADME; conditions: liver microsomes 0.5 mg/mL, NADPH, 1 μM compound, read-out: Dog microsomal T1/2
Procedure: as §1

H1299 = experiment: Proliferation inhibition of H1299 cells; format: cell-based; conditions: Homo sapiens, NCI-H1299; H1299 cell line; read-out: proliferation inhibitory activity IC50
Procedure: (§2) The proliferation inhibitory activity of some of the embodiment compounds against different cell lines such as LNCAP (+R1881), SKM-1, 22RV1, DU145, MOLM13, MDA-PCA-2b, KASUMI 1, THP-1, KG-1, IEC6, H1299, etc., was tested using similar methods in test embodiment 2 and in the literature.

[4] = tested on: most AML cell lines and prostate cancer cell lines; experiment: Proliferation inhibition of different cell lines: AML and prostate cancer lines; format: cell-based; conditions: read-out: proliferation inhibitory activity IC50
Procedure: as §2

BRD4-BD1 = target: T1, BRD4-BD1 (Homo sapiens, UniProt O60885); experiment: BRD4 AlphaScreen determination (BD1); format: binding; conditions: AlphaScreen, protein binding inhibition; read-out: BRD4-BD1 IC50
T1 construct: purchased ReactionBiologyCorp; (RBC)
Procedure: (§3) (1) 1× Assay buffer was prepared according to the kit requirements of ReactionBiologyCorp. (RBC). (2) Compound concentration gradient preparation: the test compounds were tested at final concentrations starting at 10 μM, with 10 concentrations at 3-fold dilution and single well test was set for each concentration. The positive control compound(+)-JQ-1 was tested at final concentrations starting at 1 μM, with 10 concentrations at 3-fold dilution, and duplicated well test was set for each concentration. The solution was gradient diluted to the corresponding 1000-fold final concentration in a 384-well Source plate, and then 20 nL of the solution was transferred to the 384-well reaction plate with Echo550 to be measured. 20 nL of 100% DMSO was transferred to the Max well, and the highest concentration of the positive compounds were transferred to the Min wells. […] (6) 5 μL of 4× peptide solution was added to each well of the reaction plate, centrifuged at 1000 rpm for 1 min. (7) 10 μL of the assay solution was added, centrifuged at 1000 rpm for 60 seconds, the solution was mixed with gentle shaking, and incubated at room temperature for 60 minutes. (8) Reading with EnVision. (9) The IC50 values of the compounds for protein binding inhibition was obtained by fitting the dose-effect curve with the analytical software GraphPad Prism 5. (See Table 1 for specific values)

BRD4-BD2 = target: T2, BRD4-BD2 (Homo sapiens, UniProt O60885); experiment: BRD4 AlphaScreen determination (BD2); format: binding; conditions: AlphaScreen, protein binding inhibition; read-out: BRD4-BD2 IC50
T2 construct: purchased ReactionBiologyCorp; (RBC)
Procedure: as §3

MV4-11 cells = experiment: Inhibition of proliferation of MV4-11 cells (CellTiter-Glo); format: cell-based; conditions: Homo sapiens, 72 h
Procedure: Specific experimental steps: 1) Day 0: 96 inoculated cells were digested with trypsin and suspended in cell culture medium, the cell density was detected by an automatic cell counter and the cells were diluted with the culture medium to a suitable density, 100 μL of cell suspension was added to the 96-well plate, and the cell-free medium was used as a control well, and the wells were incubated in a 37° C., 5% CO2 cell incubator overnight; 2) Day 1: A total of 8 concentrations of the compound to be tested in the drug-treated cells were tested at 3-fold dilution, 10 μM was the starting assay concentration of the compound to be tested. Specific steps: 200× compound mother liquor was prepared, the compound was diluted with culture medium to a final concentration of […], that is, 3 μL of 200× compound was added to 197 μL of culture medium, 50 μL diluted compound was added to each well of the 96-well plate, and placed at 37° C., 5% CO2 cell culture incubator for 72 h; 3) Day 4: Cell viability detection: 96-well cell plate was first equilibrated to room temperature, 40 μL of CellTiter-Glo® reagent was added to each well, mixed on a shaker for 2 minutes to fully lyse the cells, incubated at room temperature for 10 minutes to stabilize the luminescence signal, and the luminescence value was read by the Envision microplate reader; 4) data processing was performed by GraphPad Prism 5.0 software to analyze the data, and nonlinear S-curve regression was used to fit the data to obtain a dose-effect curve, and from which the ICso value was calculated. Inhibition rate %=(DMSO treated cell wells−compound treated cell wells)/(DMSO treated cell wells−cell free medium wells)×100. The ICso value was obtained by the four-parameter regression method using the random software in the microplate reader. (See Table 2 for specific values)

[5] = tested on: LNCAP, SKM-1, MOLM13, KASUMI 1, THP-1, KG-1; experiment: Proliferation inhibition of different cell lines: most sensitive lines; format: cell-based; conditions: some cell lines such as LNCAP, read-out: proliferation inhibitory activity IC50
Procedure: as §2

IEC6 = experiment: Proliferation inhibition of IEC6 cells; format: cell-based; conditions: Rattus norvegicus, IEC-6; IEC6 cell line; read-out: proliferation inhibitory activity IC50
Procedure: as §2

[6] = In vivo pharmacokinetics in mice; conditions: male, Balb c, mouse, plasma, po, 5 mg/kg
Procedure: Six male SPF-grade SD rats or Balb c mice (Shanghai B&K laboratory animals) were divided into two groups and the test compounds were configured into suitable solutions or suspensions; one group was administered intravenously and one group was administered orally. Blood was collected by jugular vein puncture, and each sample was collected about 0.2 mL/time point, heparin sodium was used for anticoagulation, the blood collection time points were as follows: before administration and 5, 15 and 30 minutes, 1, 2, 4, 6, 8 and 24 h after administration, the blood sample was collected and placed on ice, centrifuged to separate the plasma (centrifugation conditions: 8000 rpm, 6 minutes, 2-8° C.), and the collected plasma was stored at −80° C. before analysis. The plasma samples were analyzed by LC-MS/MS.
According to the blood drug concentration data of the drug, the pharmacokinetic calculation software WinNonlin5.2 non-compartmental model was used to calculate the pharmacokinetic parameters AUC0-t, AUC0-∞, MRT0-∞, Cmax, Tmax, T1/2 and Vd and other parameters and their mean and standard deviation. In addition, the bioavailability (F) was calculated by the following formula.
For samples with a concentration lower than the lower limit of quantification, when calculating the pharmacokinetic parameters, the samples sampled before reaching Cmax should be calculated as zero, and samples sampled after reaching Cmax should be calculated as unquantifiable (BLQ).

[7] = tested on: MV 4-11 transplanted tumor; experiment: Growth inhibition of MV 4-11 transplanted tumor in nude mice; format: in vivo; conditions: dose of 15 mpk, oral, daily
Procedure: The tumor tissue in vigorous growth stage was cut into about 1.5 mm^3 and inoculated subcutaneously in the right armpit of nude mice under sterile conditions. The diameter of subcutaneous transplanted tumor in nude mice was measured with vernier caliper, and the animals were randomly divided into groups when the average tumor volume was about 130 mm^3. […] During the whole experiment, the diameter of the transplanted tumor was measured twice a week, and the weight of mice was weighed at the same time. The calculation formula of tumor volume (TV) was: TV=½×a×b^2, wherein a and b represent the length and width respectively. The relative tumor volume (RTV) was calculated according to the measurement results, and the calculation formula was: RTV=VT/v0. Wherein VO is the tumor volume measured during the administration in cage (i.e., d0), and Vt is the tumor volume at each measurement.

pIC50 (H1299)	pIC50 [4]	pIC50 (BRD4-BD1)	pIC50 (BRD4-BD2)	pIC50 [5]	Compound	half-life at 1 μM [1]	half-life at 1 μM [2]	half-life at 1 μM [3]	pIC50 (MV4-11 cells)	pIC50 (IEC6)	bioavailability [6]	inhibitory rate (growth of transplanted tumor) [7]
–	–	–	–	–	CCNC(=O)c1cc2c(=O)n(C)cc(-c3cc(C(C)(C)O)ccc3Oc3c(C)cc(F)cc3C)c2[nH]1	2.8 h	2.83 h	3.25 h	–	–	–	–
< 6.00	> 6.00	6.96	9.24	> 7.00	Cc1cc(F)cc(C)c1Oc1ccc(C(C)(C)O)cc1-c1cn(C)c(=O)c2cc(C(=O)NCC(F)F)[nH]c12 [Embodiment 11, N-(2,2-difluoroethyl)-7-(2-(4-fluoro-2,6-dimethylphenoxy)-5-(2-hydroxyprop-2-yl)phenyl)-5-methyl-4-oxo-4,5-dihydro-1H-pyrrolo[3,2-c] pyridine-2-amide]	1.28 h	0.65 h	6.72 h	7.69	< 6.00	–	–
–	–	–	–	–	CCNC(=O)c1cc2c(-c3cc(C(C)(C)O)ccc3Oc3c(C)cc(F)cc3C)cn(C)c(=O)c2[nH]1 [compound 1, N-ethyl-4-(2-(4-fluoro-2,6-dimethylphenoxy)-5-(2-hydroxyprop-2-yl)phenyl)-6-methyl-7-oxo-6,7-dihydro-1H-pyrrolo[2,3-c]pyridine-2-amide, reference compound]	1.03 h	0.317 h	1.13 h	7.49	–	25%	about 60%
